The values that follow come from publication PMC9784833, “Mangosteen Metabolites as Promising Alpha-Amylase Inhibitor Candidates: In Silico and In Vitro Evaluations” (Metabolites, 2022).

The structures appear in SMILES notation.

The assay deals with T1, alpha-amylase (Homo sapiens, UniProt P04746).
T1 sequence (P04746 16-511): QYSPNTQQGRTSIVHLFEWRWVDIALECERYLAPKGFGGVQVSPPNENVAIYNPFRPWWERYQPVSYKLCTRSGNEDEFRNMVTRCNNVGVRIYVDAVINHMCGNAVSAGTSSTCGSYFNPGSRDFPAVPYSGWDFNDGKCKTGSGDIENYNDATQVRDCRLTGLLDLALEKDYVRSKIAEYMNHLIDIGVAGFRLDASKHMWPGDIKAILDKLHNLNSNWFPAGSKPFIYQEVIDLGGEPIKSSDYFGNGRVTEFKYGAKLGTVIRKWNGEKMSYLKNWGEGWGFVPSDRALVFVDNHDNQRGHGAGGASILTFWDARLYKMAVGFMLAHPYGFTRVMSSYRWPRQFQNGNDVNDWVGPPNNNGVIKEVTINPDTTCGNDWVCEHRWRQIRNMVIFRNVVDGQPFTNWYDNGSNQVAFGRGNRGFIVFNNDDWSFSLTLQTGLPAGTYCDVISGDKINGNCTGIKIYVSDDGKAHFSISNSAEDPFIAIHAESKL
Description: In vitro alpha-amylase inhibition assay (EnzChek Ultra-Amylase-Assay Kit).
The IC50 is the concentration at which inhibition is half-maximal. `O=C(c1ccc(O)c(O)c1)c1c(O)cc(O)cc1O[C@@H]1O[C@H](CO)[C@@H](O)[C@H](O)[C@H]1O` [Compound 4, Rhodanthenone] gave a 50% inhibitory concentration (IC50) of 10.4 µM.
On to `CC(C)=CCc1c(O)c(CC=C(C)C)c2oc3c(O)ccc(O)c3c(=O)c2c1O` [Compound 17, Gartanin], for which it took 21.2 µM to reach half-maximal inhibition (IC50).
Consider `CC(C)=CCc1c(O)cc2oc3c(CC=C(C)C)c(O)c(O)c(CC=C(C)C)c3c(=O)c2c1O` [Compound 15, Garcinone E], for which the midpoint of inhibition, the IC50, lay at 18.8 µM.
As for `COc1ccc(C2Oc3c(c(O)cc(O)c3C3OC(CO)C(O)C(O)C3O)C(=O)C2O)cc1` [Compound 9, 2R,3R-5,7-Dihydroxy-8-C-β-D-glucopyranosyl-4-methoxy-2,3-dihydroflavon-3-ol], the figure is 12.8 µM; as for `O=C(c1cc(O)c(O)cc1O)c1c(O)cc(O)cc1OC1OC(CO)C(O)C(O)C1O` [Compound 8, 6-O-β-D-Glucopyranosyl-2,4,6,3′,4′,6′-hexahydroxybenzophenone], 7.1 µM.
As for `COc1cc2oc3cc(O)c(OC)c(CC=C(C)C)c3c(=O)c2c(O)c1/C=C\C(C)(C)O` [Compound 35, Mangostanaxanthone VIII], the figure is 40.6 µM; as for `COc1c(O)cc2oc3c(CC=C(C)CCC=C(C)C)c(O)cc(O)c3c(=O)c2c1CC=C(C)CCC=C(C)C` [Compound 10, Mangostanaxanthone I], 28.3 µM; as for `CC(C)=CCc1c(O)c(O)c(/C=C\C(C)(C)O)c2c(=O)c3c(O)c(/C=C\C(C)(C)O)c(O)cc3oc12` [Compound 29, Mangostanaxanthone V], 11.9 µM.
`CC(C)=CCc1c(O)cc2oc3c(/C=C\C(C)(C)O)c(O)c(O)c(CC=C(C)C)c3c(=O)c2c1O` [Compound 30, Mangostanaxanthone VI] showed an IC50 of 21.9 µM.
As for `COc1c(O)cc2oc3cc(O)c(/C=C\C(C)(C)O)c(O)c3c(=O)c2c1CC=C(C)C` [Compound 28, Mangostanaxanthone IV], the figure is 46.5 µM; as for `Oc1cc(O)c2c(c1)O[C@H](c1ccc(O)c(O)c1)[C@H](O)C2` [Compound 6, Epicatechin], 8.9 µM; as for `O=C1c2c(O)cc(O)c([C@@H]3O[C@H](CO)[C@@H](O)[C@H](O)[C@H]3O)c2O[C@H](c2ccc(O)cc2)[C@H]1O` [Compound 5, Aromadendrin-8-C-glucoside], 8.3 µM.
Next, `CC(C)=CCc1c(O)cc2oc3c(O)c(O)c(O)c(CC=C(C)C)c3c(=O)c2c1O` [Compound 40, Garcixanthone D]: 11.1 µM; `O=C(c1cccc(O)c1)c1c(O)cc(O)cc1O[C@@H]1O[C@H](CO)[C@@H](O)[C@H](O)[C@H]1O` [Compound 3, 2,4,3’-Trihydroxy benzophenone-6-O-β-D-glucopyranoside]: 15.8 µM.
Next, `CC(C)=CCc1c(O)c(C(=O)CC(C)(C)O)c2oc3c(O)ccc(O)c3c(=O)c2c1O` [Compound 39, Garcixanthone C]: 17.1 µM; `COc1c(O)cc2oc3cc(O)c(CC=C(C)C)c(O)c3c(=O)c2c1CC=C(C)C` [Compound 13, α-Mangostin]: 44.1 µM; `CC(C)=CCc1c(O)cc2oc3c(CC=C(C)C)c(O)c4c(c3c(=O)c2c1O)C=CC(C)(C)O4` [Compound 23, Tovophyllin A]: 20.4 µM.
Molecule `CC(C)=CCc1c(O)cc2oc3cc(O)c(O)c(/C=C\C(C)(C)O)c3c(=O)c2c1O` [Compound 31, Mangostanaxanthone VII] came in with a half-maximal inhibitory concentration (IC50) of 19.5 µM.
